Measurements reported in US20100056524A1, “Compound” (priority 2008, published 2010).

Molecular target: T1, TBK1 (Homo sapiens, UniProt Q9UHD2)
T1 construct: All protein kinases were of human origin and encoded full length proteins, unless indicated otherwise; His6; made in house; host or cells: insect Sf21 cells
T1 sequence (Q9UHD2 1-729): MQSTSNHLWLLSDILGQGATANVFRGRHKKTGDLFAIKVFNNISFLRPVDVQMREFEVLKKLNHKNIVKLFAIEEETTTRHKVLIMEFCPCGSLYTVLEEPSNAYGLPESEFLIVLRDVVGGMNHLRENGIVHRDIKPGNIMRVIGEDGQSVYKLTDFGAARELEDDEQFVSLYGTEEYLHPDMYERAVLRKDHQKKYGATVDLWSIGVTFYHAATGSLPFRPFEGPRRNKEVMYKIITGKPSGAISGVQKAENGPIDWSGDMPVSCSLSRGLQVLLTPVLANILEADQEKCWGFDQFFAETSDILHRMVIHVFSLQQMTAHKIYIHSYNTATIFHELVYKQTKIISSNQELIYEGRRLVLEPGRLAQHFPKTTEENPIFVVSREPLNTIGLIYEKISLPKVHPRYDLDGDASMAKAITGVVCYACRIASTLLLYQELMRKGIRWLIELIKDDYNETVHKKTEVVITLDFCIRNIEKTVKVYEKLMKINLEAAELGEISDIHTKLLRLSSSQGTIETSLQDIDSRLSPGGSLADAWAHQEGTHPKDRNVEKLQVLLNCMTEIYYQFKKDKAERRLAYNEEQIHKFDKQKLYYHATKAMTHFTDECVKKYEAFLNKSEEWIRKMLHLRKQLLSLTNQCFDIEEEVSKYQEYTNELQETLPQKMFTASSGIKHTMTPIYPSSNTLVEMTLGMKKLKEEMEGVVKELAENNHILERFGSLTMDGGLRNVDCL
Assay: TBK1 protein kinase assay ([γ-33P]ATP, P81 filterplates)
Type: biochemical
Settings: 50 μM ATP; read-out: Potency (TBK1 IC50 potency score)
In short: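 Human TBK1 assayed for 30 min with peptide substrate (300 μM), 50 μM [γ-33P]ATP and 10 mM magnesium acetate in 50 mM Tris/HCl pH 7.5, 0.1 mM EGTA, 0.1% 2-mercaptoethanol. Stopped with orthophosphoric acid and counted on P81 filters. IC50 from 10 compound concentrations.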

IC50	SMILES
< 100 nM	Cc1nc2ccc(Nc3ncc(C4CC4)c(NCCCNC(=O)C4CCC4)n3)cc2[nH]1 [Example 209, Cyclobutanecarboxylicacid{3-[5-cyclopropyl-2-(2-methyl-3H-benzimidazol-5-ylamino)-pyrimidin-4-ylamino]-propyl}-amide]
< 100 nM	O=C(NCCCNc1nc(Nc2ccc3c(cnn3C3CC3)c2)ncc1C1CC1)C1CCC1 [Example 210, Cyclobutanecarboxylicacid{3-[5-cyclopropyl-2-(1-cyclopropyl-1H-indazol-5-ylamino)-pyrimidin-4-ylamino]-propyl}-amide]
< 100 nM	O=C(NCCCNc1nc(Nc2ccc3nn(CC4CC4)cc3c2)ncc1C1CC1)C1CCC1 [Example 213, Cyclobutanecarboxylicacid{3-[5-cyclopropyl-2-(2-cyclopropylmethyl-2H-indazol-5-ylamino)-pyrimidin-4-ylamino]-propyl}-amide]

The next lines start with the compound.

SMILES	IC50
O=C(NCCCNc1nc(Nc2ccc(NC3CCOCC3)nc2)ncc1C1CC1)C1CCC1 [Example 207, Cyclobutanecarboxylic acid (3-{5-cyclopropyl-2-[6-(tetrahydro-pyran-4-ylamino)-pyridin-3-ylamino]-pyrimidin-4-ylamino}-propyl)-amide]	< 100 nM
O=C(NCCCNc1nc(Nc2ccc(C3CC3)nc2)ncc1C1CC1)C1CCC1 [Example 208, Cyclobutanecarboxylic acid {3-[5-cyclopropyl-2-(6-cyclopropyl-pyridin-3-ylamino)-pyrimidin-4-ylamino]-propyl}-amide]	< 100 nM
O=C(NCCCNc1nc(Nc2ccc3cnn(C4CC4)c3c2)ncc1C1CC1)C1CCC1 [Example 211, Cyclobutanecarboxylicacid{3-[5-cyclopropyl-2-(1-cyclopropyl-1H-indazol-6-ylamino)-pyrimidin-4-ylamino]-propyl}-amide]	< 100 nM
O=C(NCCCNc1nc(Nc2ccc3c(cnn3CC3CC3)c2)ncc1C1CC1)C1CCC1 [Example 212, Cyclobutanecarboxylicacid{3-[5-cyclopropyl-2-(1-cyclopropylmethyl-1H-indazol-5-ylamino)-pyrimidin-4-ylamino]-propyl}-amide]	< 100 nM
O=C(NCCCNc1nc(Nc2ccc3[nH]nnc3c2)ncc1C1CC1)C1CCC1 [Example 214, Cyclobutanecarboxylicacid{3-[2-(1H-benzotriazol-5-ylamino)-5-cyclopropyl-pyrimidin-4-ylamino]-propyl}-amide]	< 100 nM
